Results as given in PubChem BioAssay (NCI).
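Cultured in 96-well plates, cells were exposed to test compound for 48 hours across five concentrations. Here, GI50 denotes the concentration required for 50% inhibition of growth. The concentration for full growth arrest is given as TGI.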

These compounds were tested on SF-268 CNS (assay: DTP human tumour cell line panel, 48 h).
For CC(C)=[CH][Sb]([Br])([CH]=C(C)C)([CH]=C(C)C)[CH]=C(C)C, the GI50 was 11.7 µM and the TGI was 74.5 µM. For CCOC(=O)[C@H]1Nc2ccc(C)cc2C2c3ccccc3CC21 (some centres not stated), the TGI was > 100 µM. In the case of COc1cc([N+](=O)[O-])ccc1NC(=O)C(F)(F)F, the TGI is reported as > 100 µM. In the case of N#CCCN(CCC#N)c1ccc(/C=C2\N=C(CN3C(=O)c4ccccc4C3=O)OC2=O)cc1, the TGI is reported as > 100 µM. In the case of O=C(NC1CCCCCC1)C1C(=O)N(C2CCCCCC2)C(=O)/C1=N\O (configuration not stated), the TGI is reported as > 100 µM. O=C(O)C1C(C(=O)O)C(C(=O)O)C1C(=O)O (configuration not stated) was tested, and the TGI was > 100 µM. In the case of COc1ccc(C(=O)O)c(Cc2cccc3ccccc23)c1, the TGI is reported as > 100 µM. For CC#CC(=O)Nc1ccccc1CC(c1c[nH]c2ccccc12)c1c[nH]c2ccccc12, the TGI was 59 µM. With NCCCNCCSSCCCCS(=O)O the TGI was 40.6 µM. With COC(=O)C(=O)C(C(=O)C=C(C)C)C(=O)C(=O)Nc1ccc(Cl)cc1C (configuration not stated) the TGI was > 100 µM. C[C@]12CC[C@@H]3c4ccc(Oc5nc(N6CC6)nc(N6CC6)n5)cc4CC[C@H]3[C@@H]1CCC2=O was tested, and the GI50 was 2.05 µM and the TGI was 17.9 µM. Work on COc1cc(C(=O)O[C@H](C(N)=O)[C@]2(C)CO2)c2ccccc2c1 yielded a GI50 of 14.2 µM and a TGI of 36.7 µM. With Cc1cccc(C(C)(C)C)c1NC(=O)CCc1n[nH]c(=S)o1 the TGI was > 100 µM. In the case of Cc1ccc(C(=O)/C=C/c2ccccc2O)c(C)c1, the TGI is reported as > 100 µM. In the case of O=S(O)CCCCSSCCCCSSCCCCS(=O)O, the TGI is reported as > 100 µM. For N#Cc1cnsc1, the TGI was > 100 µM. In the case of CC(=O)SCCC1c2[nH]c3ccccc3c2CCN1O (configuration not stated), the TGI is reported as > 100 µM. CCOC(=O)NC(=O)c1cn(CCCOC(=O)NCCCCCCNC(=O)OCCCn2c(=O)c(C(=O)NC(=O)OCC)cn(C)c2=O)c(=O)n(C)c1=O was tested, and the TGI was > 100 µM. With O=C1C2=C(CC3C(C2)C3(Br)Br)C(=O)C2=C1CC1C(C2)C1(Br)Br (configuration not stated) the TGI was > 100 µM. In the case of CC(C)=CC(=O)N1CCN(C(=O)C=C(C)C)CC1, the TGI is reported as > 100 µM. With CCCCC/C=C/C/C=C/CCCCCCCC1=NC(C)(C)CN1C(C)C the GI50 was 1.68 µM and the TGI was 3.05 µM. For CC(=O)c1ccc(NC(=O)/C(Cc2ccccn2)=N/NC(=O)C[N+](C)(C)C)cc1, the TGI was > 100 µM. Work on O=C(CC(=O)N1N=C(c2ccccc2)C(N=Nc2ccc(Cl)cc2)C1=O)Nc1ccccc1Cl (configuration not stated) yielded a TGI of 78 µM.

What follows are compounds tested on A498 renal (assay: DTP human tumour cell line panel, 48 h).
With CC(C)(C)OC(=O)N(CCCN(CCn1c2c(c3ccccc3c1=O)C(=O)c1ccccc1-2)C(=O)OC(C)(C)C)CCn1c2c(c3ccccc3c1=O)C(=O)c1ccccc1-2 the GI50 was > 50000 nM and the TGI was > 50 µM. With CCCCCCCCCCCCCCCCOP(=O)(O)Oc1ccc(/C=C\c2ccc(OP(=O)(O)OCCCCCCCCCCCCCCCC)cc2)cc1 the TGI was > 100 µM. For CN(C)C(=S)/N=c1\ss/c(=N\C(=S)N(C)C)n1-c1ccc2c(c1)OCO2, the TGI was > 100 µM. Work on COC(=O)C(=O)C(C(=O)C(=O)Nc1ccc(C)cc1C)c1nc2ccccc2[nH]c1=O (configuration not stated) yielded a TGI of 58.8 µM. In the case of Cc1ccc(N=NC(C(=O)c2ccccc2)C(=O)c2ccccc2)cc1, the TGI is reported as > 100 µM. Cc1ccc(NC(=O)C2C(=O)N(c3ccc(C)c(C)c3)C(=O)/C2=N/O)cc1C (configuration not stated) was tested, and the TGI was > 100 µM. In the case of Nc1c(-c2ccc(Br)cc2)[n+]([O-])c2ccccc2[n+]1[O-], the TGI is reported as > 100 µM. C#CC[C@]12CC(=O)CC[C@H]1CC(=O)C2 was tested, and the TGI was > 100 µM. CNC=O.[O]=[Ge].[O]=[Ge].[O]=[Ge].[O]=[Ge][OH].[O]=[Ge][OH] was tested, and the TGI was > 100 µM. In the case of N#CCCN(c1ccc(/C=C2\N=C(c3ccc(Cl)cc3)OC2=O)cc1)S(=O)(=O)c1ccccc1, the TGI is reported as > 100 µM. Cc1cc(NS(=O)(=O)c2ccc(NC(=O)c3cccc4c(=O)c5ccccc5[nH]c34)cc2)no1 showed a TGI of 79 µM. With O=C(/C=C/c1ccccc1Cl)c1ccccc1Cl the TGI was > 100 µM. With COC(=O)C1=C(c2ccc3c(c2)OCO3)O[C@H](c2ccc3c(c2)OCO3)[C@H]1COC(C)=O the TGI was 59.6 µM. CC(C)=[CH][Sb]([Br])([CH]=C(C)C)([CH]=C(C)C)[CH]=C(C)C was tested, and the GI50 was 41000 nM and the TGI was > 100 µM. For CCOC(=O)[C@H]1Nc2ccc(C)cc2C2c3ccccc3CC21 (some centres not stated), the TGI was > 100 µM. With COc1cc([N+](=O)[O-])ccc1NC(=O)C(F)(F)F the TGI was > 100 µM. In the case of N#CCCN(CCC#N)c1ccc(/C=C2\N=C(CN3C(=O)c4ccccc4C3=O)OC2=O)cc1, the TGI is reported as > 100 µM. In the case of CSc1nc(NC2OC(COC(C)=O)C(OC(C)=O)C(OC(C)=O)C2OC(C)=O)c2c(OC(C)=O)c(C)c(=O)oc2n1 (configuration not stated), the TGI is reported as > 100 µM. With O=C(NC1CCCCCC1)C1C(=O)N(C2CCCCCC2)C(=O)/C1=N\O (configuration not stated) the TGI was 80.4 µM. O=C(O)C1C(C(=O)O)C(C(=O)O)C1C(=O)O (configuration not stated) was tested, and the TGI was > 100 µM. For NCCCNCCSSCCCCS(=O)O, the TGI was > 100 µM. In the case of COC(=O)C(=O)C(C(=O)C=C(C)C)C(=O)C(=O)Nc1ccc(Cl)cc1C (configuration not stated), the TGI is reported as > 100 µM. C[C@]12CC[C@@H]3c4ccc(Oc5nc(N6CC6)nc(N6CC6)n5)cc4CC[C@H]3[C@@H]1CCC2=O showed a GI50 of 1880 nM and a TGI of 5.79 µM. Cc1cccc(C(C)(C)C)c1NC(=O)CCc1n[nH]c(=S)o1 was tested, and the TGI was > 100 µM. For Cc1ccc(C(=O)/C=C/c2ccccc2O)c(C)c1, the TGI was > 100 µM. In the case of O=S(O)CCCCSSCCCCSSCCCCS(=O)O, the TGI is reported as > 100 µM. N#Cc1cnsc1 was tested, and the TGI was > 100 µM. CCOC(=O)NC(=O)c1cn(CCCOC(=O)NCCCCCCNC(=O)OCCCn2c(=O)c(C(=O)NC(=O)OCC)cn(C)c2=O)c(=O)n(C)c1=O was tested, and the TGI was > 100 µM. For O=C1C2=C(CC3C(C2)C3(Br)Br)C(=O)C2=C1CC1C(C2)C1(Br)Br (configuration not stated), the TGI was > 100 µM. In the case of CC(C)=CC(=O)N1CCN(C(=O)C=C(C)C)CC1, the TGI is reported as > 100 µM. In the case of CCCCC/C=C/C/C=C/CCCCCCCC1=NC(C)(C)CN1C(C)C, the GI50 is reported as 2350 nM and the TGI is reported as 15.5 µM. For CC(=O)c1ccc(NC(=O)/C(Cc2ccccn2)=N/NC(=O)C[N+](C)(C)C)cc1, the TGI was > 100 µM. In the case of CCc1cccc(C)c1NC(C)=O, the TGI is reported as > 100 µM.

The compounds below were run on KM12 colon (assay: DTP human tumour cell line panel, 48 h).
With CC(C)(C)OC(=O)N(CCCN(CCn1c2c(c3ccccc3c1=O)C(=O)c1ccccc1-2)C(=O)OC(C)(C)C)CCn1c2c(c3ccccc3c1=O)C(=O)c1ccccc1-2 the GI50 was > 50 µM and the TGI was > 50 µM. In the case of CCCCCCCCCCCCCCCCOP(=O)(O)Oc1ccc(/C=C\c2ccc(OP(=O)(O)OCCCCCCCCCCCCCCCC)cc2)cc1, the TGI is reported as > 100 µM. CCN(CC)C(=O)C/C(C)=N/NC(=O)c1ccncc1 was tested, and the TGI was > 100 µM. For Cc1c2c(nn1-c1ccc(S(=O)(=O)/N=C3\SCC(=O)N3C(=O)c3ccccc3)cc1)-c1ccccc1CC2, the GI50 was 51.4 µM and the TGI was > 100 µM. In the case of CN(C)C(=S)/N=c1\ss/c(=N\C(=S)N(C)C)n1-c1ccc2c(c1)OCO2, the TGI is reported as > 100 µM. With COC(=O)C(=O)C(C(=O)C(=O)Nc1ccc(C)cc1C)c1nc2ccccc2[nH]c1=O (configuration not stated) the TGI was > 100 µM. Cn1cc(-c2csc(-c3cccc(F)c3)n2)c2cccnc21 was tested, and the GI50 was 16 µM and the TGI was 29.5 µM. In the case of Cc1ccc(N=NC(C(=O)c2ccccc2)C(=O)c2ccccc2)cc1, the TGI is reported as > 100 µM. Cc1ccc(NC(=O)C2C(=O)N(c3ccc(C)c(C)c3)C(=O)/C2=N/O)cc1C (configuration not stated) was tested, and the TGI was > 100 µM. In the case of Nc1c(-c2ccc(Br)cc2)[n+]([O-])c2ccccc2[n+]1[O-], the TGI is reported as > 100 µM. With C#CC[C@]12CC(=O)CC[C@H]1CC(=O)C2 the TGI was > 100 µM. In the case of CNC=O.[O]=[Ge].[O]=[Ge].[O]=[Ge].[O]=[Ge][OH].[O]=[Ge][OH], the TGI is reported as > 100 µM. N#CCCN(c1ccc(/C=C2\N=C(c3ccc(Cl)cc3)OC2=O)cc1)S(=O)(=O)c1ccccc1 was tested, and the TGI was > 100 µM. With Cc1cc(NS(=O)(=O)c2ccc(NC(=O)c3cccc4c(=O)c5ccccc5[nH]c34)cc2)no1 the TGI was > 100 µM. O=C(/C=C/c1ccccc1Cl)c1ccccc1Cl was tested, and the TGI was 29.3 µM. With COC(=O)C1=C(c2ccc3c(c2)OCO3)O[C@H](c2ccc3c(c2)OCO3)[C@H]1COC(C)=O the TGI was > 100 µM. For CC(C)=[CH][Sb]([Br])([CH]=C(C)C)([CH]=C(C)C)[CH]=C(C)C, the GI50 was 3.63 µM and the TGI was 87.9 µM. In the case of CCOC(=O)[C@H]1Nc2ccc(C)cc2C2c3ccccc3CC21 (some centres not stated), the TGI is reported as > 100 µM. In the case of COc1cc([N+](=O)[O-])ccc1NC(=O)C(F)(F)F, the TGI is reported as > 100 µM. In the case of N#CCCN(CCC#N)c1ccc(/C=C2\N=C(CN3C(=O)c4ccccc4C3=O)OC2=O)cc1, the TGI is reported as > 100 µM. For CSc1nc(NC2OC(COC(C)=O)C(OC(C)=O)C(OC(C)=O)C2OC(C)=O)c2c(OC(C)=O)c(C)c(=O)oc2n1 (configuration not stated), the TGI was > 100 µM. With O=C(NC1CCCCCC1)C1C(=O)N(C2CCCCCC2)C(=O)/C1=N\O (configuration not stated) the TGI was > 100 µM. For O=C(O)C1C(C(=O)O)C(C(=O)O)C1C(=O)O (configuration not stated), the TGI was > 100 µM. In the case of COc1ccc(C(=O)O)c(Cc2cccc3ccccc23)c1, the TGI is reported as > 100 µM. CC#CC(=O)Nc1ccccc1CC(c1c[nH]c2ccccc12)c1c[nH]c2ccccc12 was tested, and the TGI was 53.6 µM. COC(=O)C(=O)C(C(=O)C=C(C)C)C(=O)C(=O)Nc1ccc(Cl)cc1C (configuration not stated) was tested, and the TGI was > 100 µM. In the case of C[C@]12CC[C@@H]3c4ccc(Oc5nc(N6CC6)nc(N6CC6)n5)cc4CC[C@H]3[C@@H]1CCC2=O, the GI50 is reported as 5.5 µM and the TGI is reported as 20 µM. COc1cc(C(=O)O[C@H](C(N)=O)[C@]2(C)CO2)c2ccccc2c1 showed a GI50 of 15.6 µM and a TGI of 32.4 µM. For Cc1cccc(C(C)(C)C)c1NC(=O)CCc1n[nH]c(=S)o1, the TGI was > 100 µM. In the case of Cc1ccc(C(=O)/C=C/c2ccccc2O)c(C)c1, the TGI is reported as > 100 µM. O=S(O)CCCCSSCCCCSSCCCCS(=O)O was tested, and the TGI was > 100 µM. N#Cc1cnsc1 was tested, and the TGI was > 100 µM.
